Test results from publication PMC8949771, “Gold(I)-Mediated Rapid Cyclization of Propargylated Peptides via Imine Formation” (Journal of the American Chemical Society, 2022).

Experiment: Au(I)-mediated imine macrocyclisation: N-terminal amine adds (Markovnikov) to N-propargyl backbone amide alkyne; JohnPhosAu(MeCN)SbF6 2 equiv, Et4NBr 16 equiv; in situ NaBH4 10 equiv reduction 15 min for quantification
Conditions: DMF, 8.0 mM, 37.0 °C

Structure (SMILES): CC[C@H](C)[C@@H]1NC(=O)[C@H](C)NC(=O)[C@H](CCCNC(=N)N)NC(=O)[C@H](Cc2ccc(O)cc2)NC(=O)[C@H](CC(C)C)NC(=O)CNC(=O)[C@H](Cc2ccccc2)NC(C)CN(CC(N)=O)C1=O (stereo partly drawn) [H-Phe-Gly-Leu-Tyr-Arg-Ala-Ile-(N-propargyl)Gly-NH2]
- ring closure, conversion by HPLC (from C#CCN(CC(N)=O)C(=O)[C@@H](NC(=O)[C@H](C)NC(=O)[C@H](CCCNC(=N)N)NC(=O)[C@H](Cc1ccc(O)cc1)NC(=O)[C@H](CC(C)C)NC(=O)CNC(=O)[C@@H](N)Cc1ccccc1)[C@@H](C)CC, 24-membered ring, 1.0 h): 89%

Structure (SMILES): CC(C)C[C@@H]1NC(=O)CNC(=O)[C@H](Cc2ccccc2)NC(C)CN([C@@H](CC(=O)O)C(N)=O)C(=O)CNC(=O)[C@H](C)NC(=O)[C@H](CCCNC(=N)N)NC(=O)[C@H](Cc2ccc(O)cc2)NC1=O (stereo partly drawn) [H-Phe-Gly-Leu-Tyr-Arg-Ala-Gly-(N-propargyl)Asp-NH2]
- ring closure, conversion by HPLC (from C#CCN(C(=O)CNC(=O)[C@H](C)NC(=O)[C@H](CCCNC(=N)N)NC(=O)[C@H](Cc1ccc(O)cc1)NC(=O)[C@H](CC(C)C)NC(=O)CNC(=O)[C@@H](N)Cc1ccccc1)[C@@H](CC(=O)O)C(N)=O, 24-membered ring, 1.0 h): 56%

Structure (SMILES): CC(C)C[C@@H]1NC(=O)CNC(=O)[C@H](Cc2ccccc2)NC(C)CN(CC(N)=O)C(=O)[C@H](C)NC(=O)[C@H](C)NC(=O)[C@H](CCCNC(=N)N)NC(=O)[C@H](Cc2ccc(O)cc2)NC1=O (stereo partly drawn) [H-Phe-Gly-Leu-Tyr-Arg-Ala-Ala-(N-propargyl)Gly-NH2]
- ring closure, conversion by HPLC (from C#CCN(CC(N)=O)C(=O)[C@H](C)NC(=O)[C@H](C)NC(=O)[C@H](CCCNC(=N)N)NC(=O)[C@H](Cc1ccc(O)cc1)NC(=O)[C@H](CC(C)C)NC(=O)CNC(=O)[C@@H](N)Cc1ccccc1, 24-membered ring, 1.0 h): 89%

Structure (SMILES): CC(C)C[C@@H]1NC(=O)CNC(C)CN(CC(N)=O)C(=O)CNC(=O)CNC(=O)CNC(=O)[C@H](C)NC(=O)[C@H](CCCNC(=N)N)NC(=O)[C@H](Cc2ccc(O)cc2)NC(=O)[C@H](CC(C)C)NC(=O)[C@H](Cc2ccccc2)NC(=O)CNC(=O)CNC(=O)[C@H](C)NC(=O)[C@H](CCCNC(=N)N)NC(=O)[C@H](Cc2ccc(O)cc2)NC(=O)[C@H](CC(C)C)NC1=O (some centres unmarked)
- ring closure, conversion by HPLC (from C#CCN(CC(N)=O)C(=O)CNC(=O)CNC(=O)CNC(=O)[C@H](C)NC(=O)[C@H](CCCNC(=N)N)NC(=O)[C@H](Cc1ccc(O)cc1)NC(=O)[C@H](CC(C)C)NC(=O)[C@H](Cc1ccccc1)NC(=O)CNC(=O)CNC(=O)[C@H](C)NC(=O)[C@H](CCCNC(=N)N)NC(=O)[C@H](Cc1ccc(O)cc1)NC(=O)[C@H](CC(C)C)NC(=O)[C@H](CC(C)C)NC(=O)CN, 51-membered ring, 1.0 h): 94%

Structure (SMILES): CC(C)C[C@@H]1NC(=O)CNC(=O)CNC(=O)CNC(C)CN(CC(N)=O)C(=O)CNC(=O)[C@H](C)NC(=O)[C@H](CCCNC(=N)N)NC(=O)[C@H](Cc2ccc(O)cc2)NC1=O (stereo partly drawn) [H-Gly-Gly-Gly-Leu-Tyr-Arg-Ala-Gly-(N-propargyl)Gly-NH2]
- ring closure, conversion by HPLC (from C#CCN(CC(N)=O)C(=O)CNC(=O)[C@H](C)NC(=O)[C@H](CCCNC(=N)N)NC(=O)[C@H](Cc1ccc(O)cc1)NC(=O)[C@H](CC(C)C)NC(=O)CNC(=O)CNC(=O)CN, 27-membered ring, 0.5 h): 91%

Structure (SMILES): CC(C)C[C@@H]1NC(=O)CNC(=O)[C@H](Cc2ccccc2)NC(C)CN(CC(N)=O)C(=O)CNC(=O)[C@H](C)NC(=O)[C@H](CCC(N)=O)NC(=O)[C@H](Cc2ccc(O)cc2)NC1=O (stereo partly drawn) [H-Phe-Gly-Leu-Tyr-Gln-Ala-Gly-(N-propargyl)Gly-NH2]
- ring closure, conversion by HPLC (from C#CCN(CC(N)=O)C(=O)CNC(=O)[C@H](C)NC(=O)[C@H](CCC(N)=O)NC(=O)[C@H](Cc1ccc(O)cc1)NC(=O)[C@H](CC(C)C)NC(=O)CNC(=O)[C@@H](N)Cc1ccccc1, 24-membered ring, 1.0 h): 64%

Structure (SMILES): CC(C)C[C@@H]1NC(=O)CNC(=O)[C@H](CS)NC(C)CN(CC(N)=O)C(=O)CNC(=O)[C@H](C)NC(=O)[C@H](CCCNC(=N)N)NC(=O)[C@H](Cc2ccc(O)cc2)NC1=O (stereo partly drawn) [H-Cys-Gly-Leu-Tyr-Arg-Ala-Gly-(N-propargyl)Gly-NH2]
- ring closure, conversion by HPLC (from C#CCN(CC(N)=O)C(=O)CNC(=O)[C@H](C)NC(=O)[C@H](CCCNC(=N)N)NC(=O)[C@H](Cc1ccc(O)cc1)NC(=O)[C@H](CC(C)C)NC(=O)CNC(=O)[C@@H](N)CS, 24-membered ring, 1.0 h): 76%

Structure (SMILES): CC(C)C[C@@H]1NC(=O)CNC(=O)[C@H](Cc2ccccc2)NC(C)CN(CC(N)=O)C(=O)CNC(=O)[C@H](C)NC(=O)[C@H](Cc2c[nH]cn2)NC(=O)[C@H](Cc2ccc(O)cc2)NC1=O (stereo partly drawn) [H-Phe-Gly-Leu-Tyr-His-Ala-Gly-(N-propargyl)Gly-NH2]
- ring closure, conversion by HPLC (from C#CCN(CC(N)=O)C(=O)CNC(=O)[C@H](C)NC(=O)[C@H](Cc1c[nH]cn1)NC(=O)[C@H](Cc1ccc(O)cc1)NC(=O)[C@H](CC(C)C)NC(=O)CNC(=O)[C@@H](N)Cc1ccccc1, 24-membered ring, 1.0 h): 57%

Structure (SMILES): CC(C)C[C@@H]1NC(=O)CNC(=O)[C@H](Cc2ccccc2)NC(C)CN([C@@H](Cc2ccccc2)C(N)=O)C(=O)CNC(=O)[C@H](C)NC(=O)[C@H](CCCNC(=N)N)NC(=O)[C@H](Cc2ccc(O)cc2)NC1=O (stereo partly drawn) [H-Phe-Gly-Leu-Tyr-Arg-Ala-Gly-(N-propargyl)Phe-NH2]
- ring closure, conversion by HPLC (from C#CCN(C(=O)CNC(=O)[C@H](C)NC(=O)[C@H](CCCNC(=N)N)NC(=O)[C@H](Cc1ccc(O)cc1)NC(=O)[C@H](CC(C)C)NC(=O)CNC(=O)[C@@H](N)Cc1ccccc1)[C@@H](Cc1ccccc1)C(N)=O, 24-membered ring, 1.0 h): 88%

Structure (SMILES): CC(C)C[C@@H]1NC(=O)CNC(=O)[C@H](Cc2ccccc2)NC(C)CN(CC(N)=O)C(=O)[C@H](CO)NC(=O)[C@H](C)NC(=O)[C@H](CCCNC(=N)N)NC(=O)[C@H](Cc2ccc(O)cc2)NC1=O (stereo partly drawn) [H-Phe-Gly-Leu-Tyr-Arg-Ala-Ser-(N-propargyl)Gly-NH2]
- ring closure, conversion by HPLC (from C#CCN(CC(N)=O)C(=O)[C@H](CO)NC(=O)[C@H](C)NC(=O)[C@H](CCCNC(=N)N)NC(=O)[C@H](Cc1ccc(O)cc1)NC(=O)[C@H](CC(C)C)NC(=O)CNC(=O)[C@@H](N)Cc1ccccc1, 24-membered ring, 1.0 h): 64%

Structure (SMILES): CC(C)C[C@@H]1NC(=O)CNC(=O)[C@H](Cc2c[nH]c3ccccc23)NC(C)CN(CC(N)=O)C(=O)CNC(=O)[C@H](C)NC(=O)[C@H](CCCNC(=N)N)NC(=O)[C@H](Cc2ccc(O)cc2)NC1=O (stereo partly drawn) [H-Trp-Gly-Leu-Tyr-Arg-Ala-Gly-(N-propargyl)Gly-NH2]
- ring closure, conversion by HPLC (from C#CCN(CC(N)=O)C(=O)CNC(=O)[C@H](C)NC(=O)[C@H](CCCNC(=N)N)NC(=O)[C@H](Cc1ccc(O)cc1)NC(=O)[C@H](CC(C)C)NC(=O)CNC(=O)[C@@H](N)Cc1c[nH]c2ccccc12, 24-membered ring, 1.0 h): 83%

Structure (SMILES): CC[C@H](C)[C@@H](C(N)=O)N1CC(C)N[C@@H](Cc2ccccc2)C(=O)NCC(=O)N[C@@H](CC(C)C)C(=O)N[C@@H](Cc2ccc(O)cc2)C(=O)N[C@@H](CCCNC(=N)N)C(=O)N[C@@H](C)C(=O)NCC1=O (stereo partly drawn) [H-Phe-Gly-Leu-Tyr-Arg-Ala-Gly-(N-propargyl)Ile-NH2]
- ring closure, conversion by HPLC (from C#CCN(C(=O)CNC(=O)[C@H](C)NC(=O)[C@H](CCCNC(=N)N)NC(=O)[C@H](Cc1ccc(O)cc1)NC(=O)[C@H](CC(C)C)NC(=O)CNC(=O)[C@@H](N)Cc1ccccc1)[C@H](C(N)=O)[C@@H](C)CC, 24-membered ring, 1.0 h): 85%

Structure (SMILES): CC(C)C[C@@H]1NC(=O)CNC(C)CN(CC(N)=O)C(=O)CNC(=O)[C@H](C)NC(=O)[C@H](CCCNC(=N)N)NC(=O)[C@H](Cc2ccc(O)cc2)NC1=O (stereo partly drawn) [H-Gly-Leu-Tyr-Arg-Ala-Gly-(N-propargyl)Gly-NH2]
- ring closure, conversion by HPLC (from C#CCN(CC(N)=O)C(=O)CNC(=O)[C@H](C)NC(=O)[C@H](CCCNC(=N)N)NC(=O)[C@H](Cc1ccc(O)cc1)NC(=O)[C@H](CC(C)C)NC(=O)CN, 21-membered ring, 0.5 h): 78%

Structure (SMILES): CC(C)C[C@@H]1NC(=O)CNC(=O)[C@H](Cc2ccccc2)NC(C)CN(CC(N)=O)C(=O)CNC(=O)[C@H](C)NC(=O)[C@H](CO)NC(=O)[C@H](Cc2ccc(O)cc2)NC1=O (stereo partly drawn) [H-Phe-Gly-Leu-Tyr-Ser-Ala-Gly-(N-propargyl)Gly-NH2]
- ring closure, conversion by HPLC (from C#CCN(CC(N)=O)C(=O)CNC(=O)[C@H](C)NC(=O)[C@H](CO)NC(=O)[C@H](Cc1ccc(O)cc1)NC(=O)[C@H](CC(C)C)NC(=O)CNC(=O)[C@@H](N)Cc1ccccc1, 24-membered ring, 1.0 h): 74%

Structure (SMILES): CC(C)C[C@@H]1NC(=O)CNC(=O)[C@H](Cc2c[nH]cn2)NC(C)CN(CC(N)=O)C(=O)CNC(=O)[C@H](C)NC(=O)[C@H](CCCNC(=N)N)NC(=O)[C@H](Cc2ccc(O)cc2)NC1=O (stereo partly drawn) [H-His-Gly-Leu-Tyr-Arg-Ala-Gly-(N-propargyl)Gly-NH2]
- ring closure, conversion by HPLC (from C#CCN(CC(N)=O)C(=O)CNC(=O)[C@H](C)NC(=O)[C@H](CCCNC(=N)N)NC(=O)[C@H](Cc1ccc(O)cc1)NC(=O)[C@H](CC(C)C)NC(=O)CNC(=O)[C@@H](N)Cc1c[nH]cn1, 24-membered ring, 1.0 h): 90%

Structure (SMILES): CC(C)C[C@@H]1NC(=O)CNC(=O)[C@H](Cc2ccccc2)NC(C)CN(CC(N)=O)C(=O)CNC(=O)[C@H](C)NC(=O)[C@@H]2CCCN2C(=O)[C@H](Cc2ccc(O)cc2)NC1=O (stereo partly drawn) [H-Phe-Gly-Leu-Tyr-Pro-Ala-Gly-(N-propargyl)Gly-NH2]
- ring closure, conversion by HPLC (from C#CCN(CC(N)=O)C(=O)CNC(=O)[C@H](C)NC(=O)[C@@H]1CCCN1C(=O)[C@H](Cc1ccc(O)cc1)NC(=O)[C@H](CC(C)C)NC(=O)CNC(=O)[C@@H](N)Cc1ccccc1, 24-membered ring, 1.0 h): 77%

Structure (SMILES): CC(=O)NCSC[C@@H]1NC(=O)[C@H](Cc2ccc(O)cc2)NC(=O)[C@H](CC(C)C)NC(=O)CNC(C)CN(CC(N)=O)C(=O)CNC(=O)[C@H](C)NC1=O (stereo partly drawn) [H-Gly-Leu-Tyr-Cys(Acm)-Ala-Gly-(N-propargyl)Gly-NH2]
- ring closure, conversion by HPLC (from C#CCN(CC(N)=O)C(=O)CNC(=O)[C@H](C)NC(=O)[C@H](CSCNC(C)=O)NC(=O)[C@H](Cc1ccc(O)cc1)NC(=O)[C@H](CC(C)C)NC(=O)CN, 21-membered ring, 0.5 h): 82%
